Reference: PubChem BioAssay (NCI)
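Dose response: 5 concentrations. Exposure: 48 h. Format: 96-well plates. Endpoint: linear interpolation; highest concentration if not reached. GI50 is the concentration that inhibits growth by half. The concentration for full growth arrest is given as TGI.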

How the values were obtained:
Test in all cases: NCI anticancer screen, dose series, 48 h
RPMI-8226 leukemia = system: RPMI-8226 leukemia
NCI-H23 lung = system: NCI-H23 lung
HT29 colon = system: HT29 colon
OVCAR-4 ovarian = system: OVCAR-4 ovarian
786-0 renal = system: 786-0 renal
A549 NSCLC = system: A549 NSCLC
M14 melanoma = system: M14 melanoma
K-562 leukemia = system: K-562 leukemia
SK-MEL-2 melanoma = system: SK-MEL-2 melanoma
OVCAR-8 ovarian = system: OVCAR-8 ovarian

Compound | GI50 (RPMI-8226 leukemia) [µM] | TGI (RPMI-8226 leukemia) [µM] | GI50 (NCI-H23 lung) [µM] | TGI (NCI-H23 lung) [µM] | GI50 (HT29 colon) [µM] | TGI (HT29 colon) [µM] | GI50 (OVCAR-4 ovarian) [µM] | TGI (OVCAR-4 ovarian) [µM] | GI50 (786-0 renal) [µM] | TGI (786-0 renal) [µM] | GI50 (A549 NSCLC) [µM] | TGI (A549 NSCLC) [µM] | GI50 (M14 melanoma) [µM] | TGI (M14 melanoma) [µM] | GI50 (K-562 leukemia) [µM] | TGI (K-562 leukemia) [µM] | GI50 (SK-MEL-2 melanoma) [µM] | TGI (SK-MEL-2 melanoma) [µM] | GI50 (OVCAR-8 ovarian) [µM] | TGI (OVCAR-8 ovarian) [µM]
CSCc1ncc(-c2ccc(C(F)(F)F)cc2)c(NC2CCCCCC2)n1 | > 10 | > 10 | > 10 | > 10 | > 10 | > 10 | > 10 | > 10 | > 10 | > 10 | > 10 | > 10 | > 10 | > 10 | > 10 | > 10 | > 10 | > 10 | > 10 | > 10
S=C(Nc1ccc(-c2nc3ccccc3s2)cc1)Nc1ccc(-c2nc3ccccc3s2)cc1 | 34.6 | > 100 | 21.1 | 44.9 | 20.7 | 55.9 | 24.4 | 99.4 | 28 | 83.2 | 22.4 | 78.5 | 21.6 | 46.1 | 26.4 | 87.6 | 22.9 | 45 | 19.9 | 49.4
CN(CCOc1ccc(NS(C)(=O)=O)cc1)CCc1ccc(NS(C)(=O)=O)cc1 | > 100 | > 100 | > 100 | > 100 | > 100 | > 100 | > 100 | > 100 | > 100 | > 100 | > 100 | > 100 | > 100 | > 100 | > 100 | > 100 | > 100 | > 100 | > 100 | > 100
O=S1(=O)CCC2=CC(C(F)(F)F)=CC(C(F)(F)F)=CN21 | – | 2.05 | – | 3.37 | – | 9.38 | – | 4.24 | – | 1.09 | – | 9.45 | – | 2.03 | – | 6.61 | – | 4.1 | – | 2.25
C=C(CN1CCc2ccccc2C1)c1ccc(CCCC(=O)Nc2ccccc2N)cc1 | 5.37 | 22.2 | 20.1 | 48.6 | 13.1 | 30.4 | 14.5 | 49.8 | 12.1 | 28.2 | 16.4 | 58.8 | 15.8 | 33 | 0.505 | 25.3 | 14.5 | 31.8 | 18.4 | 62.8
Cc1nc(C(=O)OCc2ccccc2)cc(OCc2ccccc2)c1C | 20.9 | > 72.7 | 15.3 | 36.8 | 13.1 | 29.3 | 11.8 | 33.6 | 21.2 | 50.9 | 19.3 | 49.4 | 19.8 | 40.3 | 8.8 | 36.8 | 26.4 | > 84.5 | 21.9 | 69.2
COC1CCC(OC)C(c2nc3sccn3c2/C=N/N=C(N)N)C1 (stereo not given) | 4.18 | 43.9 | 3.69 | > 35.5 | 2.59 | > 8.71 | 43.5 | > 100 | 19.7 | 47 | 47 | > 100 | 1.96 | 35.4 | 35.4 | > 63.3 | 25.7 | > 62.4 | 22.1 | 55.6
Cc1cc(C)nc(NC(=O)COc2ccc(Cl)cc2)c1 | – | > 100 | – | > 100 | – | > 100 | – | > 100 | – | > 100 | – | > 100 | – | > 100 | – | > 100 | – | > 100 | – | > 100
COc1cc(C=NCC(=O)CSC(c2ccccc2)c2ccccc2)ccc1O | 6.26 | 25.1 | 8 | 20.5 | 15.3 | 28.6 | 5.32 | 23 | 14.9 | 28.2 | 10.7 | 26 | 13.2 | 25.9 | 4.73 | 23.3 | 14.9 | 28.7 | 12.6 | 25.1
C/C(=N\NC(=S)N1CCCC1)c1ccccn1 | < 0.01 | 15.6 | < 0.01 | 42.8 | < 0.01 | 17.8 | < 0.01 | 2.3 | 0.047 | 11 | < 0.01 | 10.5 | < 0.01 | 4.06 | < 0.01 | > 55.9 | 0.242 | 14.4 | < 0.01 | 12.4
O=C(NCCCN1CCN(CCCNC(=O)Nc2cc(Cl)ccc2Cl)CC1)Nc1cc(Cl)ccc1Cl | – | > 100 | – | > 100 | – | > 100 | – | > 100 | – | > 100 | – | > 100 | – | > 100 | – | > 100 | – | > 100 | – | > 100
COc1ccc2c(c1)[n+](=O)c(/C=C/C(=O)c1cc(OC)c(OC)c(OC)c1)c(C)n2[O-] | 3.05 | 15.6 | 13.7 | 34 | 4.35 | 50.9 | 9.35 | > 100 | 13.7 | 50.3 | 21.5 | > 100 | 3.55 | 23.5 | 2.59 | > 100 | 11.5 | 28.3 | 5.3 | > 100
O=C1C(=O)N(c2cc(Cl)ccc2Cl)C(=O)C(=O)C1c1nc2ccccc2s1 | – | > 100 | – | > 100 | – | > 100 | – | > 100 | – | > 100 | – | > 100 | – | > 100 | – | > 100 | – | > 100 | – | > 100
COc1ccc(C(=O)c2ccccc2)c(O)c1 | 82.2 | > 100 | > 100 | > 100 | 43.8 | > 100 | > 100 | > 100 | > 100 | > 100 | > 100 | > 100 | 81.7 | > 100 | 91 | > 100 | > 100 | > 100 | > 100 | > 100
